Assay results: PubChem BioAssay (NCI)
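Dose response: 5 concentrations. Exposure: 48 h. Format: 96-well plates. Endpoint: linear interpolation; highest concentration if not reached. GI50 marks 50% less growth. TGI: concentration producing complete growth inhibition.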

Columns and labels:
Test in all cases: growth of human tumour cells (NCI), 48 h
HL-60(TB) leukemia = system: HL-60(TB) leukemia
UACC-257 melanoma = system: UACC-257 melanoma
OVCAR-3 ovarian = system: OVCAR-3 ovarian
KM12 colon = system: KM12 colon
SK-MEL-28 melanoma = system: SK-MEL-28 melanoma
SK-OV-3 ovarian = system: SK-OV-3 ovarian
SNB-19 CNS = system: SNB-19 CNS
CCRF-CEM leukemia = system: CCRF-CEM leukemia
HCT-15 colon = system: HCT-15 colon
MCF7 breast = system: MCF7 breast

SMILES | TGI (HL-60(TB) leukemia) | TGI (UACC-257 melanoma) | TGI (OVCAR-3 ovarian) | TGI (KM12 colon) | TGI (SK-MEL-28 melanoma) | TGI (SK-OV-3 ovarian) | TGI (SNB-19 CNS) | TGI (CCRF-CEM leukemia) | TGI (HCT-15 colon) | GI50 (UACC-257 melanoma) | GI50 (OVCAR-3 ovarian) | GI50 (MCF7 breast) | TGI (MCF7 breast) | GI50 (KM12 colon) | GI50 (SK-MEL-28 melanoma) | GI50 (SK-OV-3 ovarian) | GI50 (SNB-19 CNS) | GI50 (CCRF-CEM leukemia) | GI50 (HCT-15 colon) | GI50 (HL-60(TB) leukemia)
O=C1C=CC2(CCC23C=CC(=O)O3)O1 (stereo not drawn) | > 100 µM | > 100 µM | > 100 µM | > 100 µM | > 100 µM | > 100 µM | > 100 µM | > 100 µM | > 100 µM |  |  |  |  |  |  |  |  |  |  | 
C=C1C(=O)O[C@@H]2C[C@@]3(C)[C@H](O)CCC(=C)[C@@H]3C[C@H]12 |  |  | 21.4 µM | 14.4 µM | 20.2 µM | 52.6 µM | 46.9 µM | 14.1 µM | 35.1 µM |  |  |  |  |  |  |  |  |  |  | 
Cc1ccc(S(=O)(=O)Nc2ccccc2C(C)(C)C)cc1 | 44.7 µM | 35.4 µM | 40 µM | 47.1 µM | 43.2 µM | 81.3 µM |  | 63.8 µM | 54.6 µM |  |  |  |  |  |  |  |  |  |  | 
O=C(Nc1ccccc1C(=O)NC(=O)c1ccccc1NC(=O)c1ccccc1)c1ccccc1 |  | 4.94 µM | 13.4 µM | 3.17 µM | 10.6 µM |  | 24.8 µM | 16.4 µM | 34.3 µM |  |  |  |  |  |  |  |  |  |  | 
O=C1C2C(C(=O)N1Cc1ccccc1)N(Cc1ccccc1)C(=O)N2Cc1ccccc1 (stereo not drawn) | > 100 µM | > 100 µM | > 100 µM | > 100 µM | > 100 µM | > 100 µM | > 100 µM | > 100 µM | > 100 µM |  |  |  |  |  |  |  |  |  |  | 
O=C1OC(=O)c2c1nc1ccccc1c2-c1ccccc1 | > 100 µM | > 100 µM |  | > 100 µM |  | > 100 µM | > 100 µM | > 100 µM | > 100 µM |  |  |  |  |  |  |  |  |  |  | 
C#Cc1cccc(NC(=O)/C=C\C(=O)O)c1 | > 100 µM | > 100 µM |  | > 100 µM | > 100 µM | > 100 µM | > 100 µM | > 100 µM |  |  |  |  |  |  |  |  |  |  |  | 
CCCCCCCCCC1CC(=O)OC23CCCC(=O)C12O3 (stereo not drawn) | 69.2 µM | > 100 µM | > 100 µM | > 100 µM | > 100 µM | > 100 µM | > 100 µM | > 100 µM | > 100 µM |  |  |  |  |  |  |  |  |  |  | 
O=[N+]([O-])c1cccnc1S(=O)(=O)c1ccccc1 | 7.01 µM | 33.4 µM | 3.84 µM | 36.3 µM | 34.6 µM | 44.7 µM | 34.1 µM | > 100 µM | 21.7 µM |  |  |  |  |  |  |  |  |  |  | 
Oc1cn(-c2ccc(Cl)cc2)nc1-c1n[nH]c(=S)n1-c1ccc(F)cc1 |  | 77.4 µM | > 100 µM | > 100 µM | > 100 µM | > 100 µM | > 100 µM | > 100 µM | > 100 µM | 24.2 µM | 22 µM | 24.8 µM | > 100 µM | 13 µM | 20.4 µM | > 100 µM | 61.9 µM | 7.29 µM | 11.3 µM | 
CC(C)N(C(=O)C12C3C4C1C1C4(C#N)C3C12C(=O)O)C(C)C (stereo not drawn) | > 63 µM | > 100 µM | > 100 µM | > 100 µM | > 100 µM | > 100 µM | > 100 µM | > 82 µM | > 68.2 µM |  |  |  |  |  |  |  |  |  |  | 
N#Cc1c(-c2ccccc2)c(-c2ccccc2)cc2c(=O)c3ccc(Cl)cc3[nH]c12 | > 100 µM | > 100 µM | > 100 µM |  | > 100 µM | > 100 µM | > 100 µM | > 100 µM | > 100 µM |  |  |  |  |  |  |  |  |  |  | 
N#Cc1ccccc1Sc1ccccc1N | > 100 µM | > 100 µM |  | > 100 µM | > 100 µM | > 100 µM | > 100 µM | > 100 µM |  |  |  |  |  |  |  |  |  |  |  | 
O=C(Nc1nc2ccc(S(=O)(=O)Nc3ccc(C4(C(F)(F)F)CC4)cc3)cc2[nH]1)c1cnccn1 |  | 23.8 µM | 10.1 µM | 14.4 µM | 19.2 µM |  | 22 µM |  | 14.3 µM | 10.6 µM | 0.417 µM | 0.551 µM | 13.4 µM | 1.03 µM | 4.58 µM |  | 4.24 µM |  | 0.557 µM | 
CC(C)(C)C1=NO[C@H]2[C@@H](NC(=O)c3ccccc3)CC[C@@H]12 | > 100 µM | > 100 µM | > 100 µM | > 100 µM | > 100 µM | > 100 µM | > 100 µM | > 100 µM | > 100 µM |  |  |  |  |  |  |  |  |  |  | 
CCOC1c2nc3ccccc3nc2-c2ccccc2N1C(C)=O (stereo not drawn) | > 100 µM | > 100 µM | > 100 µM | > 100 µM | > 100 µM | > 100 µM | > 100 µM | > 100 µM | > 100 µM |  |  |  |  |  |  |  |  |  |  | 
O=C(Nc1nc(=S)[nH][nH]1)C(=O)C(c1cnc2ccc([N+](=O)[O-])cc2n1)[N+](=O)[O-] (stereo not drawn) | > 100 µM | > 100 µM | > 100 µM | > 100 µM | > 100 µM | > 100 µM | > 100 µM | > 100 µM | > 100 µM |  |  |  |  |  |  |  |  |  |  | 
OCC1OC(OC2(CO)OC(CO)C(O)C2O)C(O)C(O)C1O (stereo not drawn) | > 100 µM | > 100 µM | > 100 µM | > 100 µM | > 100 µM | > 100 µM | > 100 µM | > 100 µM | > 100 µM | > 100 µM | > 100 µM |  |  | > 100 µM | > 100 µM | > 100 µM | > 100 µM | > 100 µM | > 100 µM | > 100 µM
O=C1C=CC2(O)OCC3C=C4O[C@@H]5OC6(CCCCC6)O[C@@H]5C4[C@@H]2[C@@H]13 (stereo partly drawn) | 42.1 µM | 35 µM | 52.2 µM | > 100 µM | 44.7 µM | > 100 µM | > 100 µM | 45.8 µM | 58.7 µM |  |  |  |  |  |  |  |  |  |  | 
O=C(CI)NC(=O)NC(=O)NCc1ccccc1 |  | 23.9 µM | 3.37 µM | 24.9 µM | 11.3 µM | 29 µM | 31.9 µM | 2.14 µM | 4.94 µM | 11.5 µM | 1.82 µM | 2.28 µM | 8.59 µM | 10.9 µM | 2.96 µM | 15.4 µM | 13 µM | 0.51 µM | 2.03 µM | 
COc1ccc(-c2cnc(-c3ccncc3-c3cccc(OC)c3)o2)cc1 | 0.0968 µM | 15.8 µM |  | 1.82 µM | 17.8 µM | 17.1 µM | 19.5 µM | 16 µM | 14.5 µM | 0.403 µM |  | 0.113 µM | 12.2 µM | 0.0471 µM | 0.0639 µM | 0.0424 µM | 0.0451 µM | 0.0389 µM | 0.0473 µM | 0.024 µM
